Measured values as given in patent publication US20260027068A1, “METHODS OF ADM[…]-KETAMINE” (Perception Neuroscience, Inc., priority 2022, published 2026).

Tested on: subjects with TRD
Assay: Clinician-Administered Dissociative States Scale (CADSS)
Procedure: The Investigational Medicinal Product (IMP) R(−)-ketamine hydrochloride in sterile water for intravenous injection was investigated as an […] treatment of TRD. The International Union of Pure and Applied Chemistry (IUPAC) name is of the IMP is (2R)-2-(2-chlorophenyl)-2-(methylamino)cyclohexan-1-one. Subjects received the solution at either 30 mg or 60 mg dose, or a placebo. The IMP or placebo was administered on Day 1 as a single IV infusion via an electronic infusion pump over 40 minutes. The duration of study participation for each subject was up to 29 days including a screening period, a 3-day in-clinic visit, and 2 follow-up visits. 101 subjects were enrolled in approximately 20 study centers in the EU and the US.
The CADSS was to assess the alertness or dissociative state of subjects administered R(−)-ketamine. The study staff evaluated the subject's degree of dissociation by administering the CADSS questionnaire pre-dose; at 40 minutes post-dose (at EoI); and at 2 and 4 hours post-dose.

[1] = 30 mg, 40 min post infusion start, n 33
[2] = 30 mg, 2 hours post infusion start, n 33
[3] = 30 mg, 4 hours post infusion start, n 33
[4] = 30 mg, 6 hours post infusion start, n 10
[5] = 30 mg, to 40 min post infusion start, n 33
[6] = 30 mg, to 2 hours post infusion start, n 33
[7] = 30 mg, to 4 hours post infusion start, n 33
[8] = 60 mg, 40 min post infusion start, n 35
[9] = 60 mg, 2 hours post infusion start, n 35
[10] = 60 mg, 4 hours post infusion start, n 34
[11] = 60 mg, 6 hours post infusion start, n 11
[12] = 60 mg, to 40 min post infusion start, n 35
[13] = 60 mg, to 2 hours post infusion start, n 35
[14] = 60 mg, to 4 hours post infusion start, n 34

## CN[C@@]1(c2ccccc2Cl)CCCCC1=O [PCN 101]
[1]
  CADSS score, Mean: 3.9
  CADSS score, Median: 2.0
[2]
  CADSS score, Mean: 1.1
  CADSS score, Median: 0.0
[3]
  CADSS score, Mean: 0.4
  CADSS score, Median: 0.0
[4]
  CADSS score, Mean: 0.0
  CADSS score, Median: 0.0
[5]
  CADSS change from baseline, Mean: 3.9
  CADSS change from baseline, Median: 2.0
[6]
  CADSS change from baseline, Mean: 1.1
  CADSS change from baseline, Median: 0.0
[7]
  CADSS change from baseline, Mean: 0.4
  CADSS change from baseline, Median: 0.0
30 mg, to 6 hours, n 10
  CADSS change from baseline, Mean: −0.1
  CADSS change from baseline, Median: 0.0
[8]
  CADSS score, Mean: 4.3
  CADSS score, Median: 0.0
[9]
  CADSS score, Mean: 1.1
  CADSS score, Median: 0.0
[10]
  CADSS score, Mean: 0.3
  CADSS score, Median: 0.0
[11]
  CADSS score, Mean: 0.0
  CADSS score, Median: 0.0
[12]
  CADSS change from baseline, Mean: 4.0
  CADSS change from baseline, Median: 0.0
[13]
  CADSS change from baseline, Mean: 0.8
  CADSS change from baseline, Median: 0.0
[14]
  CADSS change from baseline, Mean: −0.0
  CADSS change from baseline, Median: 0.0
60 mg, to 6 hours, n 11
  CADSS change from baseline, Mean: 0.0
  CADSS change from baseline, Median: 0.0

## CN[C@@]1(c2ccccc2Cl)CCCCC1=O.Cl [R(−)-ketamine, (2R)-2-(2-chlorophenyl)-2-(methylamino)cyclohexan-1-one]
30 mg (n = 33)
  Subjects with post-baseline CADSS >4 and change from baseline >0, number: 12 n
  Subjects with post-baseline CADSS >4 and change from baseline >0, percent: (36.4) %
60 mg (n = 35)
  Subjects with post-baseline CADSS >4 and change from baseline >0, number: 8 n
  Subjects with post-baseline CADSS >4 and change from baseline >0, percent: (22.9) %
